Measurements as given in patent publication US4820836A, “Prostacyclin (PGI2) analogues” (Shionogi & Co., Ltd., priority 1986, dated 1989).
Like-named read-outs stand apart in the source and are kept apart here.

Test system: Platelet Agglutination
Assay: In vitro inhibition of platelet agglutination (rabbit platelet rich plasma, aggregometer) induced by arachidonic acid, collagen or ADP
Type: cell-based
Conditions: Oryctolagus cuniculus, rabbit PRP
Procedure: The inhibitory activity of the representative compounds of the present invention against platelet agglutination is shown in the following in vitro test.
Mature male rabbits (NIBS-JW, RABITON Institute Inc., weighing 2.2-2.7 kg) were used. Under sodium pentobarbital anesthesia (Somnopentyl, Pitman Movre, about 25 mg/Kg, i.v.), blood was with from the carotid artery by cannulation into centrifuge tubes containg 1/10 vol of a 3.8% sodium citrate solution. (The total volume in each tube was adjusted to 8 ml.) The blood in a tube was gentyl mixed by turing and centrifuged for 10 minutes at 210 g at 20° C. to give platelet rich plasma (PRP). The remaining blood was further centrifuged at 3,000 rpm (about 1,900 g) for 10 minutes at 20° C. to give platelet-poor plasma (PPP).
PRP was diluted with PPP to prepare a blood sample whose platelet number was 50-55×10^4 /μl. The sample was then subjected to a platelet agglutination test.
The platelet agglutination was examined by the method of Bron [Born, G.V.R., Nature, 194, 927-929 (1962)], using a Type AUTO RAM-61 aggregometer, (Rika Denki Co., Ltd., Tokyo). A volume of 400 μl of PRP, whose platelet number was adjusted to 50-55×10^4 /μl, was placed in a measuring cuvette and set in the aggregometer. PRP was warmed at 37° C. for 1 minute with stirring at 1,200 rpm, and then a solution of the test compound [dimethylsulfoxide solution (2 μl) of the compound+saline (48 μl); in case of prostaglandin I2 (PGI2) and prostaglandin E1 (PG E1), a solution of each compound (50 μl) in Tris buffer] was added thereto. Exactly 2 minutes later, 50 μl of ADP Pharmacia, U.S.A., (final concentration: 30 μM) or collagen (final muchen, muchen, concentration: 20 μg/ml) or arachidonic acid (sodium salt, Sigma, final concentration (500 μM) was added as a platelet agglutinating agent, and the change in light transmission caused by platelet agglutination was recorded.
The light transmissions of PRP and PPP were taken as 0% and 100% agglutination, respectively, and the maximum light transmission after addition of an agglutinating agent was made to the maxiumum agglutination. The inhibition rate of the platelet agglutination was expressed as the percentage of the maximum agglutination by a test compound to that by a control (Vehicle added group).
Prostaglandin (PG) I2 and E1 are served as standard substances.

[1] = ADP, final 30 μM, 37° C., compound in dimethylsulfoxide+saline, read-out: Inhibition Activity against Platelet Agglutination [50% Inhibition Concentration (μM)], ADP
[2] = arachidonic acid, final 500 μM, 37° C., compound in dimethylsulfoxide+saline, read-out: Inhibition Activity against Platelet Agglutination [50% Inhibition Concentration (μM)], Arachidonic acid
[3] = collagen, final 20 μg/ml, 37° C., compound in dimethylsulfoxide+saline, read-out: Inhibition Activity against Platelet Agglutination [50% Inhibition Concentration (μM)], Collagen

Compound: CCCCC[C@H](O)/C=C/[C@@H]1[C@H]2CC(SCCCC(=O)OC)=N[C@H]2C[C@H]1O [Compound 18c, reference compound]
- IC50 [1]: 0.074 µM
- IC50 [2]: 0.16 µM
- IC50 [3]: 0.062 µM

Compound: C#C[C@]12C[C@@H](O)[C@H](/C=C/[C@@H](O)C(C)CCCC)[C@H]1CC(SCCCC(=O)OCC)=N2 (stereo partly drawn) [17(S)g-b]
- IC50 [1]: 0.0066 µM
- IC50 [2]: 0.012 µM
- IC50 [3]: 0.0013 µM

Compound: C=C[C@]12C[C@@H](O)[C@H](/C=C/[C@H](O)C(C)CC#CC)[C@H]1CC(SCCCC(=O)OCC)=N2 (stereo partly drawn) [17(R)l-d]
- IC50 [1]: 55 µM
- IC50 [2]: 118 µM
- IC50 [3]: 23 µM

Compound: C=C[C@]12C[C@@H](O)[C@H](/C=C/[C@@H](O)C3CCCC3)[C@H]1CC(SCCCC(=O)OCC)=N2 [17(S)l-f]
- IC50 [1]: 0.3 µM
- IC50 [2]: 1.2 µM
- IC50 [3]: 0.12 µM

Compound: C#C[C@]12C[C@@H](O)[C@H](/C=C/[C@H](O)C(C)CC#CC)[C@H]1CC(SCCCC(=O)OCC)=N2 (stereo partly drawn) [17(R)g-d]
- IC50 [1]: 8.43 µM
- IC50 [2]: 11.7 µM
- IC50 [3]: 4 µM

Compound: C=C[C@]12C[C@@H](O)[C@H](/C=C/[C@@H](O)CCCCC)[C@H]1CC(SCCCC(=O)OCC)=N2 [17(S)l, ethyl 4-[1-ethenyl-7-hydroxy-6[(3S)-3-hydroxy-1-octenyl]-2-azabicyclo[3.3.0]oct-2-en-3-yl]thiobutanoate]
- IC50 [1]: 0.42 µM
- IC50 [2]: 0.7 µM
- IC50 [3]: 0.1 µM

Compound: C#C[C@]12C[C@@H](O)[C@H](/C=C/[C@@H](O)C(C)CC#CC)[C@H]1CC(SCCCC(=O)OCC)=N2 (stereo partly drawn) [17(S)g-d]
- IC50 [1]: 0.014 µM
- IC50 [2]: 0.018 µM
- IC50 [3]: 0.0042 µM

Compound: CCCCC[C@H](O)/C=C/[C@H]1[C@H](O)C[C@]2(Sc3ccccc3)N=C(SCCCC(=O)OCC)C[C@H]12 [17(S)a, ethyl 4-[7-hydroxy-6-[(3S)-3-hydroxy-1-octenyl]-1-phenylthio-2-azabicyclo[3.3.0]oct-2-en-3-yl]thiobutanoate]
- IC50 [1]: 16 µM
- IC50 [2]: 21 µM
- IC50 [3]: 8 µM

Compound: C#C[C@]12C[C@@H](O)[C@H](/C=C/[C@@H](O)CCCCC)[C@H]1CC(SCCCC(=O)OCC)=N2 [17(S)g, ethyl 4-[1-ethynyl-7-hydroxy-6-[(3S)-3-hydroxy-1-octenyl]-2-azabicyclo[3.3.0]oct-2-en-3-yl]thiobutanoate]
- IC50 [1]: 0.011 µM
- IC50 [2]: 0.02 µM
- IC50 [3]: 0.006 µM

Compound: CCCCC[C@H](O)/C=C/[C@H]1[C@H](O)CC(=O)[C@@H]1CCCCCCC(=O)O [PGE1, prostaglandin E1, reference compound]
- IC50 (pH 7.4, ADP, final 30 μM, Tris buffer, pH7.4, read-out: Inhibition Activity against Platelet Agglutination [50% Inhibition Concentration (μM)], ADP): 0.066 µM
- IC50 (pH 7.4, arachidonic acid, final 500 μM, Tris buffer, pH7.4, read-out: Inhibition Activity against Platelet Agglutination [50% Inhibition Concentration (μM)], Arachidonic acid): 0.25 µM
- IC50 (pH 7.4, collagen, final 20 μg/ml, Tris buffer, pH7.4, read-out: Inhibition Activity against Platelet Agglutination [50% Inhibition Concentration (μM)], Collagen): 0.052 µM

Compound: C#C[C@]12C[C@@H](O)[C@H](/C=C/[C@@H](O)CCCCC)[C@H]1CC(SCCCC(=O)OC)=N2 [18(S)g, methyl 4-[1-ethynyl-7-hydroxy-6-[(3S)-3-hydroxy-1-octenyl]-2-azabicyclo[3.3.0]oct-2-en-3-yl]thiobutanoate]
- IC50 [1]: 0.0241 µM
- IC50 [2]: 0.081 µM
- IC50 [3]: 0.011 µM

Compound: CCCCC[C@H](O)/C=C/[C@H]1[C@H](O)C[C@]2(CC)N=C(SCCCC(=O)OCC)C[C@H]12 [17(S)d]
- IC50 [1]: 18 µM
- IC50 [2]: 160 µM
- IC50 [3]: 9 µM

Compound: CCCCC[C@H](O)/C=C/[C@H]1[C@H](O)C[C@]2(C#N)N=C(SCCCC(=O)OCC)C[C@H]12 [17(S)m, ethyl 4-[1-cyano-7-hydroxy-6-[(3S)-3-hydroxy-1-octenyl]-2-azabicyclo[3.3.0]oct-2-en-3-yl]thiobutanoate]
- IC50 [1]: 0.167 µM
- IC50 [2]: 0.332 µM
- IC50 [3]: 0.044 µM

Compound: CCCCC[C@H](O)/C=C/[C@H]1[C@H](O)C[C@]2(C)N=C(SCCCC(=O)OCC)C[C@H]12 [17(S)e]
- IC50 [1]: 1.6 µM
- IC50 [2]: 4.4 µM
- IC50 [3]: 0.6 µM

Compound: C#C[C@]12C[C@@H](O)[C@H](/C=C/[C@H](O)C(C)CCCC)[C@H]1CC(SCCCC(=O)OCC)=N2 (stereo partly drawn) [17(R)g-b]
- IC50 [1]: 2.06 µM
- IC50 [2]: 1.55 µM
- IC50 [3]: 0.54 µM

Compound: CC#C[C@]12C[C@@H](O)[C@H](/C=C/[C@@H](O)CCCCC)[C@H]1CC(SCCCC(=O)OCC)=N2 [17(S)h]
- IC50 [1]: 0.006 µM
- IC50 [2]: 0.01 µM
- IC50 [3]: 0.0013 µM

Compound: C#CC#C[C@]12C[C@@H](O)[C@H](/C=C/[C@@H](O)CCCCC)[C@H]1CC(SCCCC(=O)OCC)=N2 [17(S)k, ethyl 4-[1-(1,3-butadiynyl)-7-hydroxy-6-[(3S)-3-hydroxy-1-octenyl]-2-azabicycl[3.3.0]oct-2-en-3-yl]thiobutanoate]
- IC50 [1]: 0.27 µM
- IC50 [2]: 0.74 µM
- IC50 [3]: 0.053 µM

Compound: CCCCC[C@H](O)/C=C/[C@@H]1[C@H]2C/C(=C/CCCC(=O)O)O[C@H]2C[C@H]1O [PGI2, prostaglandin I2]
- IC50 (pH 8, ADP, final 30 μM, Tris buffer, pH8.0, read-out: Inhibition Activity against Platelet Agglutination [50% Inhibition Concentration (μM)], ADP): 0.014 µM
- IC50 (pH 8, arachidonic acid, final 500 μM, Tris buffer, pH8.0, read-out: Inhibition Activity against Platelet Agglutination [50% Inhibition Concentration (μM)], Arachidonic acid): 0.054 µM
- IC50 (pH 8, collagen, final 20 μg/ml, Tris buffer, pH8.0, read-out: Inhibition Activity against Platelet Agglutination [50% Inhibition Concentration (μM)], Collagen): 0.019 µM
- IC50 (pH 10, ADP, final 30 μM, Tris buffer, pH10.0, read-out: Inhibition Activity against Platelet Agglutination [50% Inhibition Concentration (μM)], ADP): 0.016 µM
- IC50 (pH 10, arachidonic acid, final 500 μM, Tris buffer, pH10.0, read-out: Inhibition Activity against Platelet Agglutination [50% Inhibition Concentration (μM)], Arachidonic acid): 0.09 µM
- IC50 (pH 10, collagen, final 20 μg/ml, Tris buffer, pH10.0, read-out: Inhibition Activity against Platelet Agglutination [50% Inhibition Concentration (μM)], Collagen): 0.02 µM

Compound: C#C[C@]12C[C@@H](O)[C@H](/C=C/[C@H](O)C3CCCCC3)[C@H]1CC(SCCCC(=O)OCC)=N2 [17(R)g-e]
- IC50 [1]: 13.4 µM
- IC50 [2]: 60.6 µM
- IC50 [3]: 3 µM

Compound: C#C[C@]12C[C@@H](O)[C@H](/C=C/[C@@H](O)C3CCCCC3)[C@H]1CC(SCCCC(=O)OCC)=N2 [17(S)g-e]
- IC50 [1]: 0.033 µM
- IC50 [2]: 0.146 µM
- IC50 [3]: 0.0094 µM

Compound: CCCCC[C@H](O)/C=C/[C@H]1[C@H](O)C[C@]2(C#Cc3ccccc3)N=C(SCCCC(=O)OCC)C[C@H]12 [17(S)i]
- IC50 [1]: 5 µM
- IC50 [2]: 44 µM
- IC50 [3]: 0.45 µM

Compound: CC#C[C@]12C[C@@H](O)[C@H](/C=C/[C@@H](O)CCCCC)[C@H]1CC(SCCCC(=O)O)=N2 [19(S)h, sodium 4-[7-hydroxy-6-[(3S)-3-hydroxy-1-octenyl]-1-(1-propynyl)-2-azabicyclo[3.3.0]oct-2-en-3-yl]thiobutanoate]
- IC50 [1]: 0.0042 µM
- IC50 [2]: 0.0035 µM
- IC50 [3]: 0.0028 µM

Compound: C=C[C@]12C[C@@H](O)[C@H](/C=C/[C@@H](O)C(C)CC#CC)[C@H]1CC(SCCCC(=O)OCC)=N2 (stereo partly drawn) [17(S)l-d]
- IC50 [1]: 0.13 µM
- IC50 [2]: 0.36 µM
- IC50 [3]: 0.048 µM

Compound: C=C[C@]12C[C@@H](O)[C@H](/C=C/[C@H](O)C3CCCC3)[C@H]1CC(SCCCC(=O)OCC)=N2 [17(R)l-f]
- IC50 [1]: 142 µM
- IC50 [2]: 443 µM
- IC50 [3]: 54 µM

Compound: CCCCC[C@H](O)/C=C/[C@H]1[C@H](O)C[C@]2(OC)N=C(SCCCC(=O)OCC)C[C@H]12 [17(S)b]
- IC50 [1]: 15 µM
- IC50 [2]: 16 µM
- IC50 [3]: 7 µM

Compound: C#C[C@]12C[C@@H](O)[C@H](/C=C/[C@@H](O)CCCCC)[C@H]1CC(SCCCC(=O)O)=N2 [19(S)g, Sodium 4-[1-ethynyl-7-hydroxy-6-[(3S)-3-hydroxy-1-octenyl]-2-azabicyclo[3.3.0]oct-2-en-3-yl]thiobutanoate]
- IC50 [1]: 0.0049 µM
- IC50 [2]: 0.0093 µM
- IC50 [3]: 0.0093 µM
